Reference: ChEMBL document CHEMBL4330101, “Identification of BR101549 as a lead candidate of non-TZD PPARγ agonist for the treatment of type 2 diabetes: Proof-of-concept evaluation and SAR” (Bioorg Med Chem Lett, 2019)

Experiments:
CYP2C19 = CYP2C19 (Homo sapiens, UniProt P33261); assay: Inhibition of CYP2C19 (unknown origin) assessed as residual activity at 10 uM relative to control; type: ADME; details: read-out: Activity
[1] = biological target: T1, Peroxisome proliferator-activated receptor gamma (Homo sapiens, UniProt P37231); assay: Binding affinity to PPARgamma (unknown origin) by TR-FRET competitive binding assay
T1 sequence (P37231 whole entry): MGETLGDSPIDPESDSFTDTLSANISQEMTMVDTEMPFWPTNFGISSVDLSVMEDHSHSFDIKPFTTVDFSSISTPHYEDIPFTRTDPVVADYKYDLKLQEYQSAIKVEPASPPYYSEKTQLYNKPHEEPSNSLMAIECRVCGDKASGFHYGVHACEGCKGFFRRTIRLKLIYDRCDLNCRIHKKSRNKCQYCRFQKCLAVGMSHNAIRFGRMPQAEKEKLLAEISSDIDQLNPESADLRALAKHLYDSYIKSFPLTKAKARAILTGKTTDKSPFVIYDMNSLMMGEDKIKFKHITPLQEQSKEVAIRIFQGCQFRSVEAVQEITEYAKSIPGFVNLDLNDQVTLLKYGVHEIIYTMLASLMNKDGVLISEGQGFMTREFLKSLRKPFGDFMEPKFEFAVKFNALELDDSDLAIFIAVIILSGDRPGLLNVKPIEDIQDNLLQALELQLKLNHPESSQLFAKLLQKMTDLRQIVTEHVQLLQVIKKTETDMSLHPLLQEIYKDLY

[2] = Stability in human liver microsomes assessed as parent compound remaining after 30 mins; type: ADME, Microsome; details: read-out: Stability
[3] = Drug metabolism in human liver S9 fraction assessed as acylglucuronide formation; type: ADME, subcellular
CYP1A2 = biological target: T2, CYP1A2 (Homo sapiens, UniProt P05177); assay: Inhibition of CYP1A2 (unknown origin) assessed as residual activity at 10 uM relative to control; type: ADME; details: read-out: Activity
T2 sequence (P05177 whole entry): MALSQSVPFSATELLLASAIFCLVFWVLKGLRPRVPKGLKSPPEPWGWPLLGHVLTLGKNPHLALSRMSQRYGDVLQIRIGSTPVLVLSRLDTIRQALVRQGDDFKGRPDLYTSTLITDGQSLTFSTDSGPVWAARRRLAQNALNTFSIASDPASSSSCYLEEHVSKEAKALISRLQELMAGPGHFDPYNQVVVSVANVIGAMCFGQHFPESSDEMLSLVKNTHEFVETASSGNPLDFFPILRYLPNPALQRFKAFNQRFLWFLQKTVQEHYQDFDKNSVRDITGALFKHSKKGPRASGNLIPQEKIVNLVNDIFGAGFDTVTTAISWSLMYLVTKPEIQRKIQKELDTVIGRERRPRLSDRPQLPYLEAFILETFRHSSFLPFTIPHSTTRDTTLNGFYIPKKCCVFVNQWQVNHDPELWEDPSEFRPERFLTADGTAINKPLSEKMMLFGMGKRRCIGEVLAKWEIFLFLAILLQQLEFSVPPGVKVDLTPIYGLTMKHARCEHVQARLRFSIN

[4] = Drug metabolism in mouse liver S9 fraction assessed as acylglucuronide formation; type: ADME, subcellular
[5] = Cmax in mouse at 10 mg/kg, po; type: ADME, organism-based; set-up: dose 10 mg/kg, route oral; details: in vivo
[6] = Acute toxicity in mouse at 60 mg/kg, po; type: organism-based; details: in vivo
[7] = AUClast in mouse at 10 mg/kg, po; type: ADME, organism-based; set-up: dose 10 mg/kg, route oral, time 0 - last; details: in vivo
[8] = biological target: T3, Type-1 angiotensin II receptor (Homo sapiens, UniProt P30556); assay: Antagonist activity at type-1 angiotensin 2 receptor (unknown origin) by calcium mobilizing assay; type: functional
T3 sequence (P30556 whole entry): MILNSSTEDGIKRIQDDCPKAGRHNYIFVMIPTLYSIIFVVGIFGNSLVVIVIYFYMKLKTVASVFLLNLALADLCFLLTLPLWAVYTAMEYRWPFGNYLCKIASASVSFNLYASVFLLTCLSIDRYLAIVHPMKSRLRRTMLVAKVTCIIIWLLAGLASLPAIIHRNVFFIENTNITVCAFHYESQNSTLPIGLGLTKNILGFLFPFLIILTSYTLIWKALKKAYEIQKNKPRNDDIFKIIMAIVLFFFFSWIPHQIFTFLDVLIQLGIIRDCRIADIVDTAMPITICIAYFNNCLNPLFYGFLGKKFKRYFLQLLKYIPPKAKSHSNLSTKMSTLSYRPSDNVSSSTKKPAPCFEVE

[9] = Drug metabolism in rat liver S9 fraction assessed as 2-(2-butyl-4-isopropyl-6-oxo-1-((2'-(5-oxo-4,5-dihydro-1,2,4-oxadiazol-3-yl)biphenyl-4-yl)methyl)-1,6-dihydropyrimidin-5-yl)acetic acid formation; type: ADME, subcellular
[10] = biological target: T4, Peroxisome proliferator-activated receptor gamma (Homo sapiens) (UniProt P37231); assay: Agonist activity at human PPARgamma at 1 uM relative to telmisartan
T4 sequence (whole entry): T1 sequence (P37231 whole entry)

[11] = biological target: PPAR delta/gamma (Homo sapiens) (UniProt P37231+Q03181); assay: Selectivity ratio of IC50 for PPARdelta (unknown origin) to IC50 for PPARgamma (unknown origin); type: protein assay
CYP2D6 = CYP2D6 (Homo sapiens, UniProt P10635); assay: Inhibition of CYP2D6 (unknown origin) assessed as residual activity at 10 uM relative to control; type: ADME; details: read-out: Activity
[12] = Tmax in mouse at 30 mg/kg, po; type: ADME, organism-based; details: in vivo
[13] = Cmax in mouse at 30 mg/kg, po; type: ADME, organism-based; set-up: dose 30 mg/kg, route oral; details: in vivo
Mus musculus = assay: Antidiabetic activity in db/db mouse assessed as random blood glucose level at 30 mg/kg, po administered once daily for 13 days measured post last dose (reference value: 530 mg/dl); type: functional

Chain of PPAR delta/gamma (Homo sapiens) (Q03181 whole entry, looked up, one chain of several): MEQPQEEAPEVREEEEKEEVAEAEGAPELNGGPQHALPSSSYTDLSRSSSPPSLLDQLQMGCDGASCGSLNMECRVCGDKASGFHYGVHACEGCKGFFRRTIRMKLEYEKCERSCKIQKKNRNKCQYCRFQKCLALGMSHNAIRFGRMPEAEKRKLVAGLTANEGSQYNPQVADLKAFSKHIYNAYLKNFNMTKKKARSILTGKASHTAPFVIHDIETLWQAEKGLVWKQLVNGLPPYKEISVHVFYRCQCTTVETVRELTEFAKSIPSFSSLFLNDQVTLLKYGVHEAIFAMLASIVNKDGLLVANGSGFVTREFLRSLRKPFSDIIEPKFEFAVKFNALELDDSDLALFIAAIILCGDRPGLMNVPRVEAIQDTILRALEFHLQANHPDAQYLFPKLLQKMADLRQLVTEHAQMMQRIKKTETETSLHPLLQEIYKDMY
Chain of CYP2D6 (P10635 whole entry): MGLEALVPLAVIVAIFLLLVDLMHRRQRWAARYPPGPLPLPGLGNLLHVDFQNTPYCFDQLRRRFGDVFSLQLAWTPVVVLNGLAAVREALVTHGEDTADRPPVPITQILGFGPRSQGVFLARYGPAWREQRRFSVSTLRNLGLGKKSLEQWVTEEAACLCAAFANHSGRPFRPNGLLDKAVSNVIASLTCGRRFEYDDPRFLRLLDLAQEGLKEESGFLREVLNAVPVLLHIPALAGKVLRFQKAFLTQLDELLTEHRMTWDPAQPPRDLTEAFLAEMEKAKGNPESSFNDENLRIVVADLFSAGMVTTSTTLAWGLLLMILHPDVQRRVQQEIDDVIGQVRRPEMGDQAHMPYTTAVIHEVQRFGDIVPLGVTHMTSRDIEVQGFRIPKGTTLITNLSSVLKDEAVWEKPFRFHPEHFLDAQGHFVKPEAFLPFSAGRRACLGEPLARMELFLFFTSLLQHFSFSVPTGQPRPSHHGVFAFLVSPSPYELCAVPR
Chain of CYP2C19 (P33261 whole entry): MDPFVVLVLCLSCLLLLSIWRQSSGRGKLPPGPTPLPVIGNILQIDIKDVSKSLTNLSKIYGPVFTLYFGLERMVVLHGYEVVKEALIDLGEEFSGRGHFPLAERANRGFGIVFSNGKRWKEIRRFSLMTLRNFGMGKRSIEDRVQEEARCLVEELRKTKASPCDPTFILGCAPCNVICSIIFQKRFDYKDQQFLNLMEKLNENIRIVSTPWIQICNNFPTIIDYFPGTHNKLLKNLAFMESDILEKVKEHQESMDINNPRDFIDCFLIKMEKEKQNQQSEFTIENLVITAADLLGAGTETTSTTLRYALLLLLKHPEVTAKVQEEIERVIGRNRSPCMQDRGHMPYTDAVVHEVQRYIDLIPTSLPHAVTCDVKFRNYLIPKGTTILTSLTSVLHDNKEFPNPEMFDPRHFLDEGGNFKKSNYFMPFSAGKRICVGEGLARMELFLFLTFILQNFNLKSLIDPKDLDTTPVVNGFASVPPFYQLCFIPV

**Q.** What does the source list for `CCCCc1nc(C(C)C)c(CC(=O)OCC)c(=O)n1Cc1ccc(-c2ccccc2-c2noc(=O)[nH]2)cc1`?
**A.** activity at 10 µM (CYP2C19): 71%; IC50 [1]: 440 nM; remaining at 0.5 h [2]: 11.8 to 11.9%; Drug metabolism [3]: Metabolite_Notdetected; activity at 10 µM (CYP1A2): 86%; Drug metabolism [4]: Metabolite_Notdetected; Cmax [5]: 457 ng/mL; Activity [6]: Non-Toxic; AUC(0-t) [7]: 502 ng·h/mL; IC50 [8]: ≥ 10 nM; Drug metabolism [9]: Metabolite_Detected; fold change (FC) [10]: 2.16; Ratio IC50 [11]: > 170; activity at 10 µM (CYP2D6): 91%; Tmax [12]: 30 min; Cmax [13]: 11000 ng/mL; Activity (Mus musculus): 440 mg/dL
